Reference: paper PMC4494852, “Microwave-assisted preparation, structural characterization, lipophilicity, and anti-cancer assay of some hydroxycoumarin derivatives” (Monatshefte Fur Chemie, 2014)

How the values were obtained:
[1] = known logP of standards; cited from earlier work
[2] = Lipophilicity by reversed-phase TLC on RP-18 WF254s plates with standardization; conditions: for φ 0 (intercept of the trend line with abscissa axis): molar fraction for which lipophilicity equals 0

Structure (SMILES)	S (slope of the trend line RM vs φ) ([2]; acetonitrile/water)	S (slope of the trend line RM vs φ) ([2]; dioxane/water)	S (slope of the trend line RM vs φ) ([2]; isopropanol/water)	S (slope of the trend line RM vs φ) ([2]; methanol/water)	φ 0 (intercept of the trend line with abscissa axis) ([2]; acetonitrile/water)	φ 0 (intercept of the trend line with abscissa axis) ([2]; dioxane/water)	φ 0 (intercept of the trend line with abscissa axis) ([2]; isopropanol/water)	φ 0 (intercept of the trend line with abscissa axis) ([2]; methanol/water)	melting point [°C]	LogP value [1]	R M0 (lipophilicity extrapolated to 100 % water) ([2]; acetonitrile/water)	R M0 (lipophilicity extrapolated to 100 % water) ([2]; dioxane/water)	R M0 (lipophilicity extrapolated to 100 % water) ([2]; isopropanol/water)	R M0 (lipophilicity extrapolated to 100 % water) ([2]; methanol/water)
Nc1ccc(Cl)cc1Cl [2,4-Dichloroaniline, 2,4-dichloroaniline, reference compound]	3.3029	3.3036	4.2876	2.7739	–	–	–	–	–	2.91	1.8609	2.0135	2.1269	1.8895
O=[N+]([O-])c1ccccc1O [2-Nitrophenol, 2-nitrophenol, reference compound]	2.5429	2.2497	2.9639	1.9676	–	–	–	–	–	–	1.1246	1.0657	1.2375	1.0469
CC(=O)Nc1ccc(Cl)c(Cl)c1 [3,4-Dichloroacetanilide, reference compound]	3.5551	3.0847	4.1116	2.4827	–	–	–	–	–	2.96	–	–	–	–
Nc1ccc(Cl)c(Cl)c1 [3,4-Dichloroaniline, 3,4-dichloroaniline, reference compound]	3.2165	3.3499	4.4484	3.2073	–	–	–	–	–	2.69	1.7807	1.9357	2.149	2.1151
O=C(c1ccccc1)c1ccccc1 [Benzophenone, benzophenone, reference compound]	4.1335	3.6381	4.4575	3.2945	–	–	–	–	–	–	–	–	–	–
CC(=O)Oc1cc(C)cc2oc(=O)cc(C)c12 [Compound 2a, 5-acetoxy-4,7-dimethylcoumarin]	3.6418	3.2936	3.8312	2.5335	0.481	0.474	0.424	0.642	–	–	–	–	–	–
N#CCOc1cc(=O)oc2ccccc12 [Compound 4, 4-(cyanomethoxy)chromen-2-one]	2.8179	2.5467	2.2371	2.2036	0.438	0.452	0.401	0.607	204	–	–	–	–	–
CC(=O)Oc1ccc2c(C)cc(=O)oc2c1 [Compound 10, 7-Acetoxy-4-methylcoumarin]	3.506	3.3341	3.436	2.3174	0.526	0.518	0.448	0.680	–	–	–	–	–	–
O=C1Nc2ccccc2C1=O [Isatine, isatine, reference compound]	2.0278	1.2132	2.0065	1.4786	–	–	–	–	–	0.83	0.7435	0.3418	0.5885	0.6009

More lines, main results first:

S (slope of the trend line RM vs φ) ([2]; acetonitrile/water)	S (slope of the trend line RM vs φ) ([2]; dioxane/water)	S (slope of the trend line RM vs φ) ([2]; isopropanol/water)	S (slope of the trend line RM vs φ) ([2]; methanol/water)	φ 0 (intercept of the trend line with abscissa axis) ([2]; acetonitrile/water)	φ 0 (intercept of the trend line with abscissa axis) ([2]; dioxane/water)	φ 0 (intercept of the trend line with abscissa axis) ([2]; isopropanol/water)	φ 0 (intercept of the trend line with abscissa axis) ([2]; methanol/water)	melting point [°C]	Structure (SMILES)	LogP value [1]	R M0 (lipophilicity extrapolated to 100 % water) ([2]; acetonitrile/water)	R M0 (lipophilicity extrapolated to 100 % water) ([2]; dioxane/water)	R M0 (lipophilicity extrapolated to 100 % water) ([2]; isopropanol/water)	R M0 (lipophilicity extrapolated to 100 % water) ([2]; methanol/water)
3.3589	3.2254	2.3947	2.677	0.499	0.498	0.434	0.669	214 to 216	Cc1cc(OCC#N)c2c(C)cc(=O)oc2c1 [Compound 5, 5-(cyanomethoxy)-4,7-dimethylchromen-2-one]	–	–	–	–	–
2.0876	1.8746	1.6695	1.9022	0.346	0.356	0.309	0.506	–	O=c1ccc2ccc(O)cc2o1 [Compound 7, umbelliferone]	–	0.7232	0.6676	0.5162	0.9623
2.5539	2.2314	2.0405	2.0525	0.382	0.409	0.372	0.567	–	Cc1cc(=O)oc2cc(O)ccc12 [Compound 8, 7-hydroxy-4-methylcoumarin]	–	–	–	–	–
3.0614	3.2472	2.6277	2.5967	0.464	0.508	0.446	0.697	–	CC(=O)c1c(O)ccc2c(C)cc(=O)oc12 [Compound 9, 8-Acetyl-7-hydroxy-4-methylcoumarin]	–	–	–	–	–
2.9356	2.5162	2.8074	1.8855	0.425	0.409	0.362	0.526	–	CC(=O)c1cc2c(C)cc(=O)oc2cc1O [Compound 11, 6-Acetyl-7-hydroxy-4-methylcoumarin]	–	–	–	–	–
4.1309	3.8375	4.6873	2.9469	–	–	–	–	–	c1ccc(Nc2ccccc2)cc1 [Diphenylamine, diphenylamine, reference compound]	–	–	–	–	–
5.2957	5.0853	6.2485	4.067	–	–	–	–	–	c1ccc(Cc2ccccc2)cc1 [Diphenylmethane, diphenylmethane, reference compound]	4.14	–	–	–	–
